Patent US9199981B2 (NOVARTIS AG, priority 2011, dated 2015)

Target: c-kit (Homo sapiens (Human), UniProt P10721)
Assay: Mo7e cell proliferation assay (SCF dependent proliferation)
Type: cell-based
Settings: Mo7e cells stimulated with human recombinant SCF, 48 hours, 1% FBS
Description: Compounds of Formula (I) and Formula (II) provided herein were assayed to measure their capacity to inhibit c-kit and PDGFR kinases using the appropriate assay described below: c-Kit inhibition was evaluated using the Mo7e cell proliferation assay, and PDGFR inhibition was evaluated using the Rat A10 cell proliferation assay and the Human TG/HA-VSMC cell proliferation assay.
Mo7e Cell Proliferation Assay
The compounds of Table 1 and Table 2 were tested for inhibition of SCF dependent proliferation using human Mo7e cells which endogenously express c-kit in a 384 well format. […] After 48 hours of incubation at 37° C., cell viability was measured by adding 25 uL of CellTiter Glo (Promega) to the cells and the luminescence was measured by a CLIPR CCD camera (Molecular Devices).
The IC50 value is given as that concentration of the test compound in question that provoke a response halfway between the baseline and maximum responses.

Sequence of c-kit (P10721 26-976): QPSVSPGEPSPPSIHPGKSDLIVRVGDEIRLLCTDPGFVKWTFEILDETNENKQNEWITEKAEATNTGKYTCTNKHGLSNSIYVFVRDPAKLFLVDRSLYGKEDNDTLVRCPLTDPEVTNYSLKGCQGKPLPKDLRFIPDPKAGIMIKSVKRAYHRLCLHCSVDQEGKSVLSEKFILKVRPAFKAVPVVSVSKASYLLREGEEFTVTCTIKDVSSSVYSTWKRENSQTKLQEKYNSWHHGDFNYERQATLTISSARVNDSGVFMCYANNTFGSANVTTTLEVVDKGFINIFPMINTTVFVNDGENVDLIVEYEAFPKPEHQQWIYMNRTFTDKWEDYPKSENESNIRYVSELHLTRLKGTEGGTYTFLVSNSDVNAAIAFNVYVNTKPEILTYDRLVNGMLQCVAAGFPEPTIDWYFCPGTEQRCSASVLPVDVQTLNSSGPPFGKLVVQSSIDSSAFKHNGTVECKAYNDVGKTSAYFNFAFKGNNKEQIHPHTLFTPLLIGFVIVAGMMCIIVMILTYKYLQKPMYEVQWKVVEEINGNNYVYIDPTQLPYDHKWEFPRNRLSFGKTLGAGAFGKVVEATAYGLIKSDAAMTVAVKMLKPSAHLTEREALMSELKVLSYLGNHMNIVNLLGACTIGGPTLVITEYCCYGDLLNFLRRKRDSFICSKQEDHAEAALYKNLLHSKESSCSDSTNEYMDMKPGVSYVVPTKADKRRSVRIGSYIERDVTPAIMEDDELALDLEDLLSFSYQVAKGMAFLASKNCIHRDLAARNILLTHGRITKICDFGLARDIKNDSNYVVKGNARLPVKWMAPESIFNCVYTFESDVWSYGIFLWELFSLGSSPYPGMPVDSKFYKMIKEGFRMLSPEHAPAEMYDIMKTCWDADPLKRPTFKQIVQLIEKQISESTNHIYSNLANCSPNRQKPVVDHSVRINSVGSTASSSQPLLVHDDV

Structure (SMILES)	IC50
Cc1ccc(-c2noc(C3CC(F)(F)C3)n2)cc1NC(=O)c1cnc2ccc(COCCF)cn12 [F83]	29 nM
Cc1ccc(-c2noc(C3(C(F)(F)F)CC3)n2)cc1NC(=O)c1cnc2ccccn12 [F119]	162 nM
COC(=O)NC1(c2nc(-c3ccc(C)c(NC(=O)c4cnc5ccccn45)c3)no2)CC(F)(F)C1 [F175, methyl (3,3-difluoro-1-(3-(3-(imidazo[1,2-a]pyridine-3-carboxamido)-4-methylphenyl)-1,2,4-oxadiazol-5-yl)cyclobutyl)carbamate]	73 nM
Cc1ccc(-c2noc(C3CC(F)(F)C3)n2)cc1NC(=O)c1cnc2ccc(CCC(=O)O)cn12 [F171]	> 10000 nM
CC(C)(O)Cn1cc(-c2ccc3ncc(C(=O)Nc4cc(-c5noc(C6CC(F)(F)C6)n5)ccc4F)n3c2)cn1 [F48]	16 nM
Cc1ccc(C(=O)NC2CC(F)(F)C2)cc1NC(=O)c1cnc2ccccn12 [F93]	24 nM
C=C1CC(c2nc(-c3ccc(C)c(NC(=O)c4cnc5ccccn45)c3)no2)C1 [F30]	16 nM
Cc1cn(-c2ccc3ncc(C(=O)Nc4cc(-c5noc(C6CC(F)(F)C6)n5)ccc4C)n3c2)cn1 [F95]	77 nM
Cc1ccc(-c2noc([C@H]3C[C@H](NC(=O)OC(C)(C)C)C3)n2)cc1NC(=O)c1cnc2ccccn12 [F127]	353 nM
Cc1ccc(-c2noc(C3CC(=NOCC4CC4)C3)n2)cc1NC(=O)c1cnc2ccccn12 (stereo not shown) [F15]	35 nM
Cc1ccc(-c2noc(C3CC(F)(F)C3)n2)cc1NC(=O)c1cnc2ccc(COCC(F)(F)F)cn12 [F52]	79 nM
Cc1ccc(-c2noc(C3CC(O)(C(F)(F)F)C3)n2)cc1NC(=O)c1cnc2ccccn12 (stereo not shown) [F25, N-(5-(5-(3-hydroxy-3-(trifluoromethyl)cyclobutyl)-1,2,4-oxadiazol-3-yl)-2-methylphenyl)imidazo[1,2-a]pyridine-3-carboxamide]	13 nM
[2H]C([2H])([2H])O[C@H]1C[C@@H](c2nc(-c3ccc(C)c(NC(=O)c4cnc5ccccn45)c3)no2)C1 [F19]	9 nM
COCc1ccc2ncc(C(=O)Nc3cc(-c4noc(C5CC(F)(F)C5)n4)ccc3C)n2c1 [F39]	37 nM
Cc1ccc(-c2noc(C3CC(F)(F)C3)n2)cc1NC(=O)c1cnc2cc(CC(C)(C)O)ccn12 [F155]	390 nM
COC1(C(F)(F)F)CC(c2nc(-c3ccc(C)c(N(C)C(=O)c4cnc5ccccn45)c3)no2)C1 (stereo not shown) [F135]	999 nM
Cc1ccc(-c2noc(C3CCC3)n2)cc1NC(=O)c1cnc2ccc(COCC(F)(F)F)cn12 [F86]	49 nM
Cc1ccc(-c2noc(C3CC(F)(F)C3)n2)cc1NC(=O)c1cnc2ccc(CO)cn12 [F37, N-(5-(5-(3,3-difluorocyclobutyl)-1,2,4-oxadiazol-3-yl)-2-methylphenyl)-6-(hydroxymethyl)imidazo[1,2-a]pyridine-3-carboxamide]	60 nM

Structure (SMILES)	IC50
Cc1ccc(-c2noc(C3CC(F)(F)C3)n2)cc1NC(=O)c1cnc2ccc(COCCO)cn12 [F38]	25 nM
Cc1ccc(-c2noc(C3CC(O)(C(F)(F)F)C3)n2)cc1NC(=O)c1cnc2cc(F)ccn12 (stereo not shown) [F94]	56 nM
C=C1CC(c2nc(-c3ccc(F)c(NC(=O)c4cnc5ccccn45)c3)no2)C1 [F138]	103 nM
Cc1ccc(-c2noc(CNC3CC(F)(F)C3)n2)cc1NC(=O)c1cnc2ccccn12 [F34]	16 nM
Cc1ccc(-c2noc(C3(N)CCC3)n2)cc1NC(=O)c1cnc2ccccn12 [F137]	197 nM
Cc1ccc(-c2noc(C3CC(F)(F)C3)n2)cc1NC(=O)c1cnc2ccc(COCC(F)F)cn12 [F77]	32 nM
Cc1ccc(-c2noc([C@H]3C[C@@H](OCC(C)(C)O)C3)n2)cc1NC(=O)c1cnc2ccc(F)cn12 [F172]	> 10000 nM
COCC1(c2nc(-c3ccc(C)c(NC(=O)c4cnc5ccc(F)cn45)c3)no2)CCC1 [F98]	86 nM
Cc1nnc(-c2ccc3ncc(C(=O)Nc4cc(-c5noc(C6CC(F)(F)C6)n5)ccc4F)n3c2)[nH]1 [F61, N-(5-(5-(3,3-difluorocyclobutyl)-1,2,4-oxadiazol-3-yl)-2-fluorophenyl)-6-(5-methyl-4H-1,2,4-triazol-3-yl)imidazo[1,2-a]pyridine-3-carboxamide]	154 nM
Cc1ccc(-c2noc(C3CC3(F)F)n2)cc1NC(=O)c1cnc2ccc(COCC(F)(F)F)cn12 (stereo not shown) [F85]	69 nM
Cc1ccc(-c2noc(C3CC4(C3)OC[C@H](C)O4)n2)cc1NC(=O)c1cnc2ccccn12 (stereo partly shown) [F12]	12 nM
COCC1(c2nc(-c3ccc(C)c(NC(=O)c4cnc5ccccn45)c3)no2)CC1 [F20]	49 nM
Cc1ccc(-c2noc(C3CC(O)(C4CC4)C3)n2)cc1NC(=O)c1cnc2ccccn12 (stereo not shown) [F31, N-(5-(5-(3-cyclopropyl-3-hydroxycyclobutyl)-1,2,4-oxadiazol-3-yl)-2-methylphenyl)imidazo[1,2-a]pyridine-3-carboxamide]	50 nM
Cc1ccc(-c2nc(C3CC(F)(F)C3)no2)cc1NC(=O)c1cnc2ccccn12 [F1]	24 nM
Cc1ccc(-c2noc(C3CC(F)(F)C3)n2)cc1NC(=O)c1cnc2cc(-c3cn(CCO)nn3)ccn12 [F66, N-(5-(5-(3,3-difluorocyclobutyl)-1,2,4-oxadiazol-3-yl)-2-methylphenyl)-7-(1-(2-hydroxyethyl)-1H-1,2,3-triazol-4-yl)imidazo[1,2-a]pyridine-3-carboxamide]	16 nM
Cc1ccc(-c2noc(C3CC(F)(F)C3)n2)cc1NC(=O)c1cnc2ccc(CCC(=O)OC(C)(C)C)cn12 [F143]	237 nM
Cc1ccc(-c2noc([C@@H]3CC3(F)F)n2)cc1NC(=O)c1cnc2ccccn12 (stereo in doubt) [F88, N-(5-(5-(2,2-difluorocyclopropyl)-1,2,4-oxadiazol-3-yl)-2-methylphenyl)imidazo[1,2-a]pyridine-3-carboxamide]	66 nM
O=C(Nc1cc(-c2noc(C3CC(F)(F)C3)n2)ccc1F)c1cnc2ccc(-c3cnn(CCN4CCOCC4)c3)cn12 [F51]	85 nM

Continued by falling IC50, values first:

IC50	Structure (SMILES)
293 nM	Cc1ccc(-c2noc(C3CC(F)(F)C3)n2)c(C)c1NC(=O)c1cnc2ccccn12 [F160]
144 nM	O=C(Nc1cc(-c2noc(C3CC(F)(F)C3)n2)ccc1F)c1cnc2ccccn12 [F134]
111 nM	Cc1ccc(-c2noc(C3(F)CCC3)n2)cc1NC(=O)c1cnc2ccccn12 [F166]
95 nM	Cc1ccc(-c2noc(C3(NS(C)(=O)=O)CCC3)n2)cc1NC(=O)c1cnc2ccccn12 [F28]
85 nM	Cc1ccn2c(C(=O)Nc3cc(-c4noc([C@@H]5C[C@H]5F)n4)ccc3C)cnc2c1 [F107]
67 nM	Cc1ccc(-c2noc([C@@H]3C[C@@H]3F)n2)cc1NC(=O)c1cnc2ccccn12 [F101]
58 nM	Cc1ccc(-c2noc(CNC(=O)OC3(C)CC3)n2)cc1NC(=O)c1cnc2ccccn12 [F26]
56 nM	Cc1ccc(-c2noc([C@@H]3C[C@H]3F)n2)cc1NC(=O)c1cnc2ccccn12 [F113, N-(5-(5-((1S,2R)-2-fluorocyclopropyl)-1,2,4-oxadiazol-3-yl)-2-methylphenyl)imidazo[1,2-a]pyridine-3-carboxamide]
52 nM	Cc1ccn2c(C(=O)Nc3cc(-c4noc([C@H]5C[C@@H]5F)n4)ccc3C)cnc2c1 [F106]
39 nM	Cc1ccc(-c2noc(C3CC(F)(F)C3)n2)cc1NC(=O)c1cnc2cc(N3CCOC3=O)ccn12 [F68]
33 nM	Cc1ccc(-c2noc(C3CC(F)(F)C3)n2)cc1NC(=O)c1cnc2cc(C3CCN(S(C)(=O)=O)CC3)ccn12 [F49, N-(5-(5-(3,3-difluorocyclobutyl)-1,2,4-oxadiazol-3-yl)-2-methylphenyl)-7-(1-(methylsulfonyl)piperidin-4-yl)imidazo[1,2-a]pyridine-3-carboxamide]
31 nM	Cc1ccc(-c2noc(C3CC(F)(F)C3)n2)cc1NC(=O)c1cnc2ccc(CCC(C)(C)O)cn12 [F54, N-(5-(5-(3,3-difluorocyclobutyl)-1,2,4-oxadiazol-3-yl)-2-methylphenyl)-6-(3-hydroxy-3-methylbutyl)imidazo[1,2-a]pyridine-3-carboxamide]
28 nM	Cc1ccc(-c2noc(C3CC(F)C3)n2)cc1NC(=O)c1cnc2ccccn12 (stereo not shown) [F36, N-(5-(5-(3-fluorocyclobutyl)-1,2,4-oxadiazol-3-yl)-2-methylphenyl)imidazo[1,2-a]pyridine-3-carboxamide]
25 nM	COCCO[C@H]1C[C@@H](c2nc(-c3ccc(C)c(NC(=O)c4cnc5ccccn45)c3)no2)C1 [F18, N-(5-(5-((1s,3s)-3-(2-methoxyethoxy)cyclobutyl)-1,2,4-oxadiazol-3-yl)-2-methylphenyl)imidazo[1,2-a]pyridine-3-carboxamide]
20 nM	Cc1ccc(-c2noc(C3CC(C)(C)C3)n2)cc1NC(=O)c1cnc2ccccn12 [F58]
15 nM	CON=C1CC(c2nc(-c3ccc(C)c(NC(=O)c4cnc5ccccn45)c3)no2)C1 (stereo not shown) [F7, N-(5-(5-(3-(methoxyimino)cyclobutyl)-1,2,4-oxadiazol-3-yl)-2-methylphenyl)imidazo[1,2-a]pyridine-3-carboxamide]
13 nM	Cc1ccc(-c2noc(C3CC(F)(F)C3)n2)cc1NC(=O)c1cnc2ccc(-c3cscn3)cn12 [F46]
13 nM	Cc1ccc(-c2noc(C3CC(F)(F)C3)n2)cc1NC(=O)c1cnc2cc(-c3c[nH]nn3)ccn12 [F65, N-(5-(5-(3,3-difluorocyclobutyl)-1,2,4-oxadiazol-3-yl)-2-methylphenyl)-7-(1H-1,2,3-triazol-4-yl)imidazo[1,2-a]pyridine-3-carboxamide]
12 nM	CCON=C1CC(c2nc(-c3ccc(C)c(NC(=O)c4cnc5ccccn45)c3)no2)C1 (stereo not shown) [F14]
